Reference: US20240269206A1, “AMANITA […] EXTRACTS AND COMPOUNDS AND THEIR […] […] USE” (priority 2021, published 2024)
Where two headings read alike, the source gives them in different places.

Tests used:
[1] = system: male CD [Crl:CD(SD)] rats; assay: Conditioned place preference (CPP) study, abuse liability assessment; format: in vivo, rat; conditions: for Conditioned place preference score for CS+ (percentage of time in the 2 conditioning compartments), Mean / Conditioned place preference score for CS+, LSMean (least squares mean): 20 mg/kg oral gavage (positive control)
Experimental: Purpose: A conditioned place preference (CPP) study was conducted in rats to evaluate the abuse potential of exemplary aqueous A. muscaria extract AME-1. The CPP study is a standard behavioral model used for studying the reward and aversive effects of a compound and is designed to determine the reinforcing properties of drugs of abuse using classical Pavlovian conditioning. Accordingly, the CPP paradigm provides for a rapid measurement of the positive reinforcing or aversive properties of a test sample, in this case, AME-1.
Methods: Four treatment groups of 8 male CD® [Crl:CD®(SD)] rats were exposed to unique environmental cues associated with a conditioned stimuli (CS+) or saline (CS−) in a 3-chamber straight alleyway system. Following a habituation phase (Week −1) during which compartment preference was determined for each animal, the conditioning phase (Week 1 and Week 2) was conducted during which compartments 1 and 3 were paired with the test and control articles or saline. Saline (CS−) and test/control articles (CS+, at 800 and 1100 mg/kg of exemplary A. muscaria aqueous extract AME-1 or 20 mg/kg cocaine) were administered via oral gavage at a dose volume of 5 mL/kg. After two sets of conditioning trials during the conditioning phase, each rat was retested for free-choice side preference (Days 5 and 12). Each rat received eight stimulus environmental pairing sessions (e.g., four test article and four saline) and two CPP test sessions (T1, T2). The study design was as follows:
The following parameters and endpoints were evaluated in this study: mortality, clinical signs, body weights, and CPP testing. During CPP testing sessions, the following parameters were assessed: 1) Total time spent in the black and/or white (Compartment 1 and 3) compartments, which were used to calculate the “preference score,” and these values expressed as a percentage of time in the two conditioning compartments; 2) Total number of beam breaks in each conditioning compartment; and 3) Preference score expressed as a percentage of time in the 2 conditioning compartments. Only preference scores for the CS+ expressed as a percentage of time in the 2 conditioning compartments were reported. A CPP was determined when the test subject spent more time in the test sample-paired compartment versus the vehicle-paired compartment. Conversely, a conditioned place aversion (CPA) was determined when the test subject spent more time in the vehicle-paired compartment versus the sample-paired compartment. Therefore, possible outcomes included whether AME-1 causes a dependence, an aversive effect, or no effect. The total time spent in the nonpreferred compartment+total time spent in both conditioning compartments was expressed as a percentage, and used as a measure of “side preference.” Side preference infers a hedonic valence for the environmental cues of the compartment. Initial side preferences/biases (Habituated Score-H) were used to determine which of two compartments would be paired with the targeted interoceptive states. After two CS-UCS pairings, groups were retested for side preference (Test 1-1; Test 2-2). A significant change score from the initial habituation test scores reflected a conditioned place approach (* p<0.05).

[2] = system: levels of serotonin (5-hydroxytryptamine), noradrenaline and dopamine in the brain; conditions: male rats and mice, cited from earlier work
[3] = system: GABA receptor; conditions: cited from earlier work; for Mechanism of action at the GABA receptor: Brehm et al., Walker et al.
[4] = stomach, liver and brain; cited from earlier work
[5] = after ingestion of Amanita mushrooms; cited from earlier work
[6] = cited from earlier work

With `COC(=O)[C@H]1[C@@H](OC(=O)c2ccccc2)C[C@@H]2CC[C@H]1N2C` [Cocaine] the “Conditioned place preference score for CS+ (percentage of time in the 2 conditioning compartments), Mean” value ([1]; Habituation) was 39.593, the “Conditioned place preference score for CS+, LSMean (least squares mean)” value ([1]; Habituation) was 39.162 and the “Conditioned place preference score for CS+ (percentage of time in the 2 conditioning compartments), Mean” value ([1]; Overall) was 49.665. The “Conditioned place preference score for CS+, LSMean (least squares mean)” value ([1]; Overall, different from Groups 1 and 3, p < 0.05) was 49.639^a, f, the “Conditioned place preference score for CS+ (percentage of time in the 2 conditioning compartments), Mean” value ([1]; Test 1) was 61.194 and the “Conditioned place preference score for CS+, LSMean (least squares mean)” value ([1]; Test 1) was 61.877. For the same compound, the “Conditioned place preference score for CS+ (percentage of time in the 2 conditioning compartments), Mean” value ([1]; Test 2) was 48.208, the “Conditioned place preference score for CS+, LSMean (least squares mean)” value ([1]; Test 2) was 47.822 and the “Outcome of CPP testing: conditioned place preference” value ([1]; 20 mg/kg oral gavage, positive control) was “did produce a CPP”.

For `N[C@H](C(=O)O)c1cc(O)no1` [ibotenic acid, (S)-2-Amino-2-(3-hydroxyisoxazol-5-yl) acetic acid], the “Effect on brain levels of serotonin, noradrenaline and dopamine” value ([2]; 16 mg/kg intraperitoneally) is given as “affect the levels of serotonin (5-hydroxytryptamine), noradrenaline and dopamine in the brain”, the “Mechanism of action at the GABA receptor” value [3] is given as “activation of the GABA receptor” and the Metabolic fate [4] is given as “metabolized by decarboxylation in the stomach, liver, and brain to equal amounts of muscimol”. For the same compound, the “Time of detection in urine after ingestion” value [5] was “detected within an hour after ingestion”.

In the case of `NCc1cc(=O)[nH]o1` [muscimol, 5-(Aminomethyl)-1,2-oxazol-3(2H)-one], the “Amount of the dose injected that crossed to the brain” value ([6]; IV 8 μmol/kg 3H-muscimol, 150 g male Sprague Dawley rat) is given as “approximately 0.02%”, the “Muscimol amount in the brain” value ([6]; IV 8 μmol/kg 3H-muscimol, male Sprague Dawley rat) is given as “approximately 200 pmol/g tissue” and the “Distribution at various brain regions” value ([6]; IV 8 μmol/kg, male Sprague Dawley rat) is given as “highest muscimol concentration being in the substantia nigra, the colliculi and the hypothalamus”. For the same compound, the “Time until blood concentration was below limits of detection” value ([6]; after intravenous injection, rat) was ≤ 180 min, the “Distribution in the corneum stratum compared to the hypothalamus, hippocampus and cortex” value ([6]; intracerebroventricular injection 1200 nmol/kg, rat) was “approximately 2 times” and the “Tolerability (reports of adverse effects or toxicity)” value ([6]; intravenous injection 8 μmol/kg, rat) was “well-tolerated”. For the same compound, the “Effect on brain levels of serotonin, noradrenaline and dopamine” value ([2]; 3 mg/kg intraperitoneally) was “affect the levels of serotonin (5-hydroxytryptamine), noradrenaline and dopamine in the brain”, the “Mechanism of action at the GABA receptor” value [3] was “activation of the GABA receptor” and the “GABA agonist affinity and efficacy” value ([3]; Worms et al.) was “GABA agonist of high affinity but of relatively low efficacy”. The “Time of detection in urine after ingestion” value [5] was “detected within an hour after ingestion”.
